Experimental data: paper PMC7136958, “Targeting the pregnane X receptor using microbial metabolite mimicry” (EMBO Molecular Medicine, 2020)
Where “and” joins values, the source holds several entries; their conditions need not be identical. Equal values may be shown once.

Legend:
[1] = target: T1, PARP 1 (Homo sapiens, UniProt P09874); test: PARP assay (Reaction Biology); format: biochemical; conditions: replicates
T1 construct: purchased Reaction Biology Corp. (RBC) PAR-21-346
Description: (§1) The following […] assays (HDAC, SIRT1, PRMT1, PARP1, p300, pCAF) were performed by Reaction Biology Corp. FKK6 was screened at a single concentration of 10 μM in duplicate in two separate experiments. The appropriate controls for the individual assays are published. The overall […]
(§2) enzyme activity in the assay is reported as a % activity in DMSO control wells. Control IC50 […]
(§3) Briefly, for the Sirtuin (SIRT1) assay, human SIRT1 (GenBank
Accession No. NM012238) full -length N-terminal His-tag protein (MW 83.2 kDa) was purified after expression in E. coli. The reaction buffer was freshly prepared and constituted 50 mM Tris-HC l ( p H 8), 137 mM NaCl, 2.7 mM KCl, 1 mM MgCl2, and just before use, 1 mg/mL BSA and 1% DMSO was added. The substrate was a fluorogenic acetylated peptide of p53 residues 379-382 (RHKK (Ac)- AM C) . In th e multi-well format, the 2X enzyme was mixed with the reaction buffer followed by compound (in 100% DMSO) titration via Acoustic technology (Echo550; LabCyte Inc, Sunnyvale, CA) in the nanoliter range. The mixture was spun down and 2X substrate (including NAD+) was added to initiate the reaction at 30° C at 2h under seal. […] Fluorescence kinetic measurements were conducted for 1.5 h in 15 min intervals using Envision (Ex 360nm/Em 460nm). […] The compound mixture was placed on filter paper and washed with 0.75% phosphoric acid and radioactivity counted. […]

[2] = target: T2, PRMT1 (Homo sapiens, UniProt Q99873); test: Histone methyltransferase assay (Reaction Biology); format: biochemical; conditions: substrate Histone H4, replicates
T2 construct: purchased Reaction Biology Corp
Description: Software Tool and reprinted with permission from KINOME scan®, a division of DiscoveRx […]
as §1, §2, §3
Accession No. NM012238) full -length N-terminal His-tag protein (MW 83.2 kDa) was purified after expression in E. coli. The reaction buffer was freshly prepared and constituted 50 mM Tris-HC l ( p H 8), 137 mM NaCl, 2.7 mM KCl, 1 mM MgCl2, and just before use, 1 mg/mL BSA and 1% DMSO was added. The substrate was a fluorogenic acetylated peptide of p53 residues 379-382 (RHKK (Ac)- AM C) . In th e multi-well format, the 2X enzyme was mixed with the reaction buffer followed by compound (in 100% DMSO) titration via Acoustic technology (Echo550; LabCyte Inc, Sunnyvale, CA) in the nanoliter range. The mixture was spun down and 2X substrate (including NAD+) was added to initiate the reaction at 30° C at 2h under seal. […]

[3] = system: mutant PXR.1 (C285I/C301A); test: PXR luciferase reporter assay in HEK293T cells, mutant PXR.1; format: cell-based, human; conditions: 10 μM, replicate wells
Description: (§4) After 24‐h transfection using Lipofectamine® LTX ([…] of plasmid), cells were exposed to FKK5 for 24 h. […] The data are expressed as mean ± SD RLU (relative light units from luciferase assay) normalized to β‐Gal activity in the same well. Differences were tested using 2‐way ANOVA with Tukey's multiple comparison test, and P < 0.05 was considered significant (*).

[4] = target: T3, wild-type PXR.1 (Homo sapiens, UniProt O75469); test: PXR luciferase reporter assay in HEK293T cells, wild-type PXR.1; format: cell-based; conditions: 10 μM, replicate wells
T3 construct: expressed in transfected cells; host or cells: HEK293T
Description: as §4

[5] = read-out: % Enzyme Activity to DMSO controls

T3 sequence (O75469 whole entry): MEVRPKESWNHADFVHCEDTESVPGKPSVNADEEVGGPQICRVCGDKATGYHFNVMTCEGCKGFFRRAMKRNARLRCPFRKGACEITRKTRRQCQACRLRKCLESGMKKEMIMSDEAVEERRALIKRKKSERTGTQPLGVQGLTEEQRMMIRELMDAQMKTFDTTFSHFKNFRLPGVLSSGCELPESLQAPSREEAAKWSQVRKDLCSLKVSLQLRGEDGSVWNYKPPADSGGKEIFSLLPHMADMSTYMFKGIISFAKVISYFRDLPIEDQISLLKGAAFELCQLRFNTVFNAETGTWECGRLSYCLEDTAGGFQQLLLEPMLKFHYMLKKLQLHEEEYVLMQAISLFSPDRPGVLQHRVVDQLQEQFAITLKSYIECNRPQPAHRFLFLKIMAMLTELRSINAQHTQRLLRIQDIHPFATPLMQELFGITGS
T2 sequence (Q99873 whole entry, species assumed): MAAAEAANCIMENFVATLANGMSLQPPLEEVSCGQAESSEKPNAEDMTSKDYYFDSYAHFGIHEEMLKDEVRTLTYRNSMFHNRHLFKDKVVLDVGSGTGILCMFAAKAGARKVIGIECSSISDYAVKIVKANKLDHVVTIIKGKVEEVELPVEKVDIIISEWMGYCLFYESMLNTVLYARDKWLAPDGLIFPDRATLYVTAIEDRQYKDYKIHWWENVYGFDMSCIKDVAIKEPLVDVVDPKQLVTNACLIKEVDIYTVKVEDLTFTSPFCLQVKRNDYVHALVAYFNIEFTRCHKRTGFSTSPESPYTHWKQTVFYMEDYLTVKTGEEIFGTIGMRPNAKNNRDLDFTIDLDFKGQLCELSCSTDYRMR
T1 sequence (P09874 whole entry, species assumed): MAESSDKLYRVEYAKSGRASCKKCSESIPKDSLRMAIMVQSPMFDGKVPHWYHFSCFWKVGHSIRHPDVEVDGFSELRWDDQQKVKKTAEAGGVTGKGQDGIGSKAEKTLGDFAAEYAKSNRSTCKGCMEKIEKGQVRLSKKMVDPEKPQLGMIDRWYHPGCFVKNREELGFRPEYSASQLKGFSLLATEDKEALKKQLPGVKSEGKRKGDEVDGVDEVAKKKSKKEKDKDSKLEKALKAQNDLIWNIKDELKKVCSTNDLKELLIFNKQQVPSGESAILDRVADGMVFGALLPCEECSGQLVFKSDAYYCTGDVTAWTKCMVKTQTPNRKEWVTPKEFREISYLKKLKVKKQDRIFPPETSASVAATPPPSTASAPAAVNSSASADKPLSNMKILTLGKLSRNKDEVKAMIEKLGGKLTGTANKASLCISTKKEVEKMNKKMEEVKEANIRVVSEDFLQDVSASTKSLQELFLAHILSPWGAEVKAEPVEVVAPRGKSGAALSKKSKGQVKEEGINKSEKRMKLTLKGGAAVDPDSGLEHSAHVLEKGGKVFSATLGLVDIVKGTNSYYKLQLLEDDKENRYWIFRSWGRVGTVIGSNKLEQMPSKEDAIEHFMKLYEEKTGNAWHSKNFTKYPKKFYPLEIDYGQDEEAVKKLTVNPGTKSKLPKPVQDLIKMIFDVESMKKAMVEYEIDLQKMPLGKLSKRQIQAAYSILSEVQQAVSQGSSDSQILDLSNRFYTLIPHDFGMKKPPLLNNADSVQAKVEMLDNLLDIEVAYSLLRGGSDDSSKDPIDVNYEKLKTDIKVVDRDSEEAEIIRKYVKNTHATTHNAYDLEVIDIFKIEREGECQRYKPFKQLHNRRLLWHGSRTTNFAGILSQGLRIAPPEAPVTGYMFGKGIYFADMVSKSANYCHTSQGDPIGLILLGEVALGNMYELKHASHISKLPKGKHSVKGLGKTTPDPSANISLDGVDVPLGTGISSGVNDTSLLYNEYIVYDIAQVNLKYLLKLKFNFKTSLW

## C#CCC(O)(c1ccncc1)c1cc2ccccc2n1S(=O)(=O)c1ccccc1 (stereo not drawn) [FKK6]
[1]; 10 μM
  % Enzyme Activity to DMSO controls: 98.25% and 91.38% and 91.03%
[1]; [5]
  remaining activity at 10 µM: 99.2%
[2]; 10 μM
  % Enzyme Activity to DMSO controls: 88.77% and 78.47% and 81.3%
[2]; [5]
  remaining activity at 10 µM: 86.4%
[3]
  PXR reporter activity, RLU/B-Gal: unable to activate mutant PXR and 17076.9 RLU/B-Gal and 15814.1 RLU/B-Gal and 17887 RLU/B-Gal and 19102.1 RLU/B-Gal
[4]
  PXR reporter activity, RLU/B-Gal: 49029.5 RLU/B-Gal and 34153.4 RLU/B-Gal and 41512.1 RLU/B-Gal and 34385.8 RLU/B-Gal
